Consider 1 molecule from patent US20010014742A1, “Water-soluble prodrugs of azole compounds” (priority 1999, published 2001).

≈ marks a conversion by molar mass, not a printed value.

For orientation: solubility means the concentration that dissolves in the medium under given conditions. A low value points to a poorly soluble substance.

This data set is described as follows: aqueous solubility. Format: physicochemical. The conditions noted are these: water at pH 6.8.

`C[C@@H](c1nc(-c2ccc(C#N)cc2)cs1)C(O)(Cn1cncn1)c1ccc(F)cc1F` (stereo partly drawn) [the above triazole compound, (2R,3R)-3-[4-(4-cyanophenyl)thiazol-2-yl]-2-(2,4-difluorophenyl)-1-(1H,1,2,4-triazol-1-yl)-butan-2-ol] had a solubility of 0.6 µg/mL (≈ 1.37 µM).
